In general, IC50 refers to the concentration at which inhibition is half-maximal. As usually defined, the Ki is a measure of affinity in units of concentration, obtained from inhibition or displacement. As usually defined, the viability is a per cent measure of how many cells are alive, often set against a control.

Experiment [1] relates to MAO-B. The conditions noted are these: cited from earlier work.
Experiment [2] has as its target T1, MAO-B (Homo sapiens, UniProt P27338).
T1 sequence (P27338 1-520): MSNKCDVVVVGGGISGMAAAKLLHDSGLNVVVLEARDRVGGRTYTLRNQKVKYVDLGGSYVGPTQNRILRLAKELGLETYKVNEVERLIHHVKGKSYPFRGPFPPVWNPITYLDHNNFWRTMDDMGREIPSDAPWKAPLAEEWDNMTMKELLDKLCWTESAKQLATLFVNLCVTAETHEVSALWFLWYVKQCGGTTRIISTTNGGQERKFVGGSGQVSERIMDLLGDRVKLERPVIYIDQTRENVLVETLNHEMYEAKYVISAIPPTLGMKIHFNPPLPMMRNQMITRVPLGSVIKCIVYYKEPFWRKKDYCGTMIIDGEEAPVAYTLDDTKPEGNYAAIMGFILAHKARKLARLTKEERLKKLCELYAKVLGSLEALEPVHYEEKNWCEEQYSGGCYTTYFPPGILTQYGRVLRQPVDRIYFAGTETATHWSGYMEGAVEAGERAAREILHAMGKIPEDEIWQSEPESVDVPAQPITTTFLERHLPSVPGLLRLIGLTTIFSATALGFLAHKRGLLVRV
Briefly: biochemical. The conditions noted are these: 0.3 mM benzylamine; for IC50: IC50 (µM) MAO-B, limit 40 µM; for remaining activity at 10 µM: read-out: Residual Activity at 10 µM (%) MAO-B, 10 µM compound.

The target of the next experiment is T2, MAO-A (Homo sapiens, UniProt P21397).
T2 sequence (P21397 1-527): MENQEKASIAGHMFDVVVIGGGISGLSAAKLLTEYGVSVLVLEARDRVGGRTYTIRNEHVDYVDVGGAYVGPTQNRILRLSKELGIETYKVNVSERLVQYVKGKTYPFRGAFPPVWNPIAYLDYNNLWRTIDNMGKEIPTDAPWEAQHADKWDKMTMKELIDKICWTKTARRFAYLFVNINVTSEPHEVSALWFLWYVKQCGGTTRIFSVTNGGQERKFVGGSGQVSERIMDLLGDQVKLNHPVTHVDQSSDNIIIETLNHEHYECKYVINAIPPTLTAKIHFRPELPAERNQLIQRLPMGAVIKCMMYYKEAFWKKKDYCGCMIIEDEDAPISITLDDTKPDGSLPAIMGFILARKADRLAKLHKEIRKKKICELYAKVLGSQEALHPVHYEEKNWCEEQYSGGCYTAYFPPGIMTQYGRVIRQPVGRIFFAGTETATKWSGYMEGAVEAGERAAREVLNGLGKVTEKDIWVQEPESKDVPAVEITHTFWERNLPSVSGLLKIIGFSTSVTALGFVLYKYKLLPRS
The experiment in a line: Inhibition of MAO-A (kynuramine, continuous absorbance assay). The note with it: for remaining activity at 10 µM: read-out: Residual Activity at 10 µM (%) MAO-A.

Experiment [3] deals with T1, MAO-B. The conditions noted are these: for SI (selectivity index): IC50 for MAO-A/IC50 for MAO-B.
Experiment [4] addresses T1, MAO-B. The experiment in a line: Reversibility of MAO-B inhibition by dialysis. It counts as biochemical. The note with it: for Residual activity, dialyzed (AD): dialyzed 6 h, two buffer changes.
The target of experiment [5] is T1, MAO-B. Briefly: MAO-B enzyme kinetics (Lineweaver-Burk and secondary plot). It counts as biochemical.
For a further experiment, the system named is SH-SY5Y cells. The experiment in a line: Neuroprotection on rotenone-induced SH-SY5Y cells by MTT assay. It counts as cell-based. (Formazan colour is commonly taken as a measure of viable cells.)
For another experiment, the system named is MAO. Details: method as in PMID 27374845. The note with it: cited from earlier work.
Setting [6] is: ~2.0 times IC50, preincubation 30 min.

SMILES strings stand for the structures.

Take `O=C1Nc2ccc(OCc3ccc(Cl)c(Cl)c3)cc2C1=O` [A3]: in the experiment on MAO-B [1], the concentration for half-maximal inhibition (IC50) is 0.003 µM.

For `O=C1Nc2ccc(Br)cc2C1=O` [Compound 1f], the IC50 in the experiment on MAO-B [1] was 0.125 µM.

On to `C#CCN1C(=O)/C(=N/NC(=O)c2ccc3c(c2)OCO3)c2ccccc21` [Compound 3], for which the IC50 in the experiment on MAO-B [1] was 0.034 µM.

For `O=C(CN1CCc2cc(OCc3ccccc3)ccc21)N1CCN(CCO)CC1` [Compound 14], the IC50 in the experiment with MAO-B [1] is 8.65 µM.

As to `O=C1Nc2ccccc2C1=NN=CC=Cc1ccccc1` [IHC1], on MAO-B [2], the IC50 was more than 40 µM and the remaining activity at 10 µM stood at 89.3 ± 3%. Moreover, on MAO-A, the IC50 is more than 40 µM and the remaining activity at 10 µM was determined as 94.5 ± 2.1%.

Consider `O=C1Nc2ccc(Br)cc2C1=NN=CC=Cc1ccccc1` [IHC2], for which, on MAO-B [3], the “SI (selectivity index)” value is given as more than 2.36. In addition, at MAO-B [2], it took 16.9 ± 0.397 µM to reach half-maximal inhibition (IC50) and the remaining activity at 10 µM came to 61.4 ± 3.42%. On MAO-A, the IC50 was more than 40 µM and the remaining activity at 10 µM was determined as 92.37 ± 0.52%.

Take `O=C1Nc2ccc(F)cc2/C1=N/N=CC=Cc1ccccc1` [IHC3]: the “Reversibility of MAO-B inhibition” value on MAO-B [4] (dialysis) is given as “reversible MAO-B inhibitor”. Moreover, the “Residual activity, dialyzed (AD)” value on MAO-B [4] (setting [6]) was 72.05%. For the same compound, the “Residual activity, undialyzed (AU)” value at MAO-B [4] (~2.0 times IC50, preincubation 30 min, undialyzed) stood at 32.87%. Besides, the “Type of MAO-B inhibition” value at MAO-B [5] (Lineweaver-Burk plot) is listed as “competitive MAO-B inhibitor”. For the same compound, the affinity on MAO-B [5] (secondary plot, benzylamine substrate), expressed as Ki, was 0.51 ± 0.15 µM. Moreover, the Cell viability trend result in the experiment with SH-SY5Y cells (25 µg/mL IHC3, rotenone-induced cells, MTT) was “viability decreased”. The viability at 12.5 µg/mL with SH-SY5Y cells (Homo sapiens, SH-SY5Y, 12.5 µg/mL IHC3, rotenone-induced cells, MTT, 24 h, read-out: Cell viability (maximum)) stood at 89.7%. Further, the “Cell death caused by rotenone” value with SH-SY5Y cells (SH-SY5Y neuroblastoma cells) was “greatly decreased the cell death”. The “SI (selectivity index)” value at MAO-B [3] is on record as more than 23.92. On MAO-B [3] (ratio of IC50 values), the “Times higher MAO-B inhibition than IHMC2” value is reported as 15.07 times and the “Times higher MAO-B inhibition than IHNC2” value is given as 13.15 times. Besides, half-maximal inhibition on MAO-B [2] (IC50) was put at 1.67 µM. Moreover, at MAO-A, the IC50 is more than 40 µM and the remaining activity at 10 µM came to 76.9 ± 1.55%.

Regarding `O=C1Nc2ccc(Cl)cc2C1=NN=CC=Cc1ccccc1` [IHC4], at MAO-B [3], the “SI (selectivity index)” value is recorded as more than 1.46. Also, the values for the IC50 against MAO-B [2] and at MAO-A were 27.5 ± 1.15 µM and more than 40 µM, respectively. Further, the values for the remaining activity at 10 µM on MAO-B [2] and on MAO-A were 73.9 ± 8.87% and 86.7 ± 1.78%, respectively.

Consider `COc1ccc2c(c1)C(=NN=CC=Cc1ccccc1)C(=O)N2` [IHC5], for which, on MAO-B [2], the IC50 was more than 40 µM and the remaining activity at 10 µM was 75.8 ± 6.17%. On MAO-A, the IC50 was more than 40 µM and the remaining activity at 10 µM was determined as 82.3 ± 1.8%.

With `Cc1ccc2c(c1)C(=NN=CC=Cc1ccccc1)C(=O)N2` [IHC6], at MAO-B [2], the IC50 is more than 40 µM and the remaining activity at 10 µM was 79.4 ± 3.25%. At MAO-A, the IC50 was more than 40 µM and the remaining activity at 10 µM is 98.1 ± 1.55%.

On to `COc1ccc(C=CC=NN=C2C(=O)Nc3ccccc32)cc1` [IHMC1], for which, at MAO-B [2], the IC50 was more than 40 µM and the remaining activity at 10 µM is 96.89 ± 0.95%. Moreover, on MAO-A, the IC50 was more than 40 µM and the remaining activity at 10 µM stood at 89.9 ± 1.3%.

Turning to `COc1ccc(C=CC=NN=C2C(=O)Nc3ccc(Br)cc32)cc1` [IHMC2], the “SI (selectivity index)” value at MAO-B [3] was more than 1.59. Besides, on MAO-B [2], half-maximal inhibition (IC50) required 25.19 ± 0.147 µM and the remaining activity at 10 µM was found to be 78.1 ± 1.12%. Also, on MAO-A, the IC50 was more than 40 µM and the remaining activity at 10 µM was found to be 86.63 ± 0.52%.

In the case of `COc1ccc(C=CC=NN=C2C(=O)Nc3ccc(F)cc32)cc1` [IHMC3], on MAO-B [2], the IC50 was more than 40 µM and the remaining activity at 10 µM came out at 81.3 ± 4.61%. For the same compound, on MAO-A, the IC50 is more than 40 µM and the remaining activity at 10 µM was found to be 85.5 ± 6.42%.

For `COc1ccc(C=CC=NN=C2C(=O)Nc3ccc(Cl)cc32)cc1` [IHMC4], on MAO-B [2], the IC50 is more than 40 µM and the remaining activity at 10 µM was 76.5 ± 3.27%. In addition, at MAO-A, the IC50 is more than 40 µM and the remaining activity at 10 µM stood at 81.46 ± 0.77%.

As for `COc1ccc(C=CC=NN=C2C(=O)Nc3ccc(OC)cc32)cc1` [IHMC5], at MAO-B [2], the IC50 is more than 40 µM and the remaining activity at 10 µM was 85.6 ± 4.27%. For the same compound, on MAO-A, the IC50 was more than 40 µM and the remaining activity at 10 µM is 84.48 ± 0.73%.

In the case of `COc1ccc(C=CC=NN=C2C(=O)Nc3ccc(C)cc32)cc1` [IHMC6], on MAO-B [2], the IC50 was more than 40 µM and the remaining activity at 10 µM was 91.8 ± 3.48%. On MAO-A, the IC50 was more than 40 µM and the remaining activity at 10 µM was 89.8 ± 2.55%.

Take `O=C1Nc2ccccc2C1=NN=CC=Cc1ccc([N+](=O)[O-])cc1` [IHNC1]: on MAO-B [2], the IC50 is more than 40 µM and the remaining activity at 10 µM amounted to 96.9 ± 3.36%. In addition, on MAO-A, the IC50 is more than 40 µM and the remaining activity at 10 µM is 88.7 ± 2.4%.

As for `O=C1Nc2ccc(Br)cc2C1=NN=CC=Cc1ccc([N+](=O)[O-])cc1` [IHNC2], on MAO-B [3], the “SI (selectivity index)” value is reported as more than 1.82. In addition, at MAO-B [2], the 50% inhibitory concentration (IC50) came out at 22 ± 0.354 µM and the remaining activity at 10 µM was 71.2 ± 1.99%. At MAO-A, the IC50 was more than 40 µM and the remaining activity at 10 µM came to 88.5 ± 0.71%.

Turning to `O=C1Nc2ccc(F)cc2C1=NN=CC=Cc1ccc([N+](=O)[O-])cc1` [IHNC3], on MAO-B [2], the IC50 was more than 40 µM and the remaining activity at 10 µM is 78.9 ± 3.35%. Besides, on MAO-A, the IC50 was more than 40 µM and the remaining activity at 10 µM was 80.4 ± 0.57%.

On to `O=C1Nc2ccc(Cl)cc2C1=NN=CC=Cc1ccc([N+](=O)[O-])cc1` [IHNC4], for which the “SI (selectivity index)” value on MAO-B [3] is recorded as more than 1.51. Also, on MAO-B [2], the IC50 is 26.5 ± 0.6 µM and the remaining activity at 10 µM turned out to be 74.5 ± 4.63%. Moreover, on MAO-A, the IC50 is more than 40 µM and the remaining activity at 10 µM turned out to be 82.3 ± 0.99%.

For `COc1ccc2c(c1)C(=NN=CC=Cc1ccc([N+](=O)[O-])cc1)C(=O)N2` [IHNC5], the IC50 against MAO-B [2] and against MAO-A was more than 40 µM each time. Also, the remaining activity at 10 µM amounted to 82 ± 1.05% on MAO-B [2] and 88.6 ± 1.98% on MAO-A.

With `Cc1ccc2c(c1)C(=NN=CC=Cc1ccc([N+](=O)[O-])cc1)C(=O)N2` [IHNC6], the IC50 against MAO-B [2] and against MAO-A was more than 40 µM in each case. Further, the remaining activity at 10 µM on MAO-B [2] came out at 81.1 ± 6.4%; at MAO-A it was 87.2 ± 1.13%.

`C[C@H](NCc1ccc(OCc2cccc(F)c2)cc1)C(N)=O` [Safinamide, reference compound]: the “Residual activity, dialyzed (AD)” value at MAO-B [4] (setting [6]) is 85.86%.

Take `O=C1Nc2ccccc2C1=O` [isatin, 1H-indole-2,3-dione]: the IC50 with MAO was approximately 3 µM.

Values taken from publication PMC10458360, “Assembling a Cinnamyl Pharmacophore in the C3-Position of Substituted Isatins via Microwave-Assisted Synthesis: Development of a New Class of Monoamine Oxidase-B Inhibitors for the Treatment of Parkinson’s Disease” (Molecules, 2023).
